Assay [1] concerns the target T1, hS1P1R (hEdg1) membrane protein (Homo sapiens, UniProt P21453).
T1 construct: purchased Lonza
Description: hS1P1R GTPγS binding assay (Assay 3a). Format: biochemical. In short, it runs like this: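 Membranes (4 μg) expressing hS1P1R incubated 1 h at room temperature with 30 μM GDP, 0.1 nM [^35S]GTPγS, 0.25% fatty acid free BSA and serially diluted agonist in Tris-HCl pH 7.9/NaCl/MgCl2/EGTA buffer. Bound [^35S]GTPγS captured on WGA SPA beads (further 1 h) and counted.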
On the technique in general: Binding of GTPγS marks nucleotide exchange on a G protein.

A further assay deals with T2, S1P1 (Homo sapiens, UniProt P21453).
T2 construct: host or cells: U2OS
T2 sequence (P32121 whole entry): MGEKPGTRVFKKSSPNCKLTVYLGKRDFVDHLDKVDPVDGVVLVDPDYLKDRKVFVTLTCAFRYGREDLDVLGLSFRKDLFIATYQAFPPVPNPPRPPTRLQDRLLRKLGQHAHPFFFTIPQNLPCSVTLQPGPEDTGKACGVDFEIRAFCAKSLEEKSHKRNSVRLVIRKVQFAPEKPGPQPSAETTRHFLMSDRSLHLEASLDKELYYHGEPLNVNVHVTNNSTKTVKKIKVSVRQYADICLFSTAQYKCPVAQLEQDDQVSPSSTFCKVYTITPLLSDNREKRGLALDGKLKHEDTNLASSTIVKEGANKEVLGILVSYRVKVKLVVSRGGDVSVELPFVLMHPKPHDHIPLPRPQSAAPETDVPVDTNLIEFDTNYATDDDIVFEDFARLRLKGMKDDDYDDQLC
T2 sequence (P21453 whole entry): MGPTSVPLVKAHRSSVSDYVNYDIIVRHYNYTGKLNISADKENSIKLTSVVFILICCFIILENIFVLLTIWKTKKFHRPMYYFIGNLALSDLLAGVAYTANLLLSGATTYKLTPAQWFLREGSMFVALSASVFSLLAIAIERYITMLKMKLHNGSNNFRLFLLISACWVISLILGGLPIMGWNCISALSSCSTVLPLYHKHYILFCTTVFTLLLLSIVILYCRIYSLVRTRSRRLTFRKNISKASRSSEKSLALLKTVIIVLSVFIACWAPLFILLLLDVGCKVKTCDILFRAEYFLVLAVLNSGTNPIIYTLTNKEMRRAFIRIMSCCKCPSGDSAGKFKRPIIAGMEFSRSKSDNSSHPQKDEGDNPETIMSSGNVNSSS
Put plainly: Tango β-arrestin recruitment assay in U2OS cells (Assay 2b). The following applies: read-out: Assay 2b EC50. Format: cell-based. The gist of the method: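 In this agonist-mode Tango assay, U2OS cells carrying S1P1 and the reporter were serum-starved 48 h, then exposed overnight at 37 °C to compound (10 points, 3-fold, top 1 μM, 1% DMSO). β-Lactamase F460/F530 ratio was normalized to 1 μM S1P, and EC50 was fitted.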
(In general: Arrestin recruitment assays detect the binding of arrestin to an activated receptor.)

In assay [2] the target is T3, hS1PR5 (hEdg8) membrane protein (Homo sapiens, UniProt Q9H228).
T3 construct: expressed in transfected cells; host or cells: CHO
T3 sequence (Q9H228 whole entry): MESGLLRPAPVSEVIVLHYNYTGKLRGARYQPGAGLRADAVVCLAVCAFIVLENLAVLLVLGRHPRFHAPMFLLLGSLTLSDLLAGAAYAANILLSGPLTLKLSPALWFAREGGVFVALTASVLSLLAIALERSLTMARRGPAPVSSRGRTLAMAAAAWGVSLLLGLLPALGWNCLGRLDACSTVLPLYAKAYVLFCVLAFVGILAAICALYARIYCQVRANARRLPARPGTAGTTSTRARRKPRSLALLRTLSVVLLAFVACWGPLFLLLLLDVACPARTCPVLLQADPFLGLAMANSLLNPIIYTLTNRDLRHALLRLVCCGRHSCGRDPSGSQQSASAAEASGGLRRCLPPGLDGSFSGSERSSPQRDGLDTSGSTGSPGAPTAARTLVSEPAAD
Description: hS1P5R GTPγS binding assay (Assay 4). Format: biochemical. In short, it runs like this:
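Membranes (5 μg) from CHO cells expressing hS1PR5, incubated 1 h at room temperature with 30 μM GDP, 0.1 nM [35S]GTPγS, 0.25% fatty acid free BSA and serially diluted compound in pH 7.9 Tris buffer with MgCl2. WGA SPA beads added for another 1 h, then bound [35S]GTPγS counted by scintillation.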

Another assay concerns the target T4, S1P3 (Homo sapiens, UniProt Q99500).
T4 construct: host or cells: HEK293 (transient transfection)
Description: S1P3 Tango β-arrestin recruitment assay in HEK293 cells (Assay 5). Format: cell-based. The conditions noted are these: read-out: Assay 5 EC50. In short, it runs like this:
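HEK293 cells transiently expressing S1P3 fused via TEV-cleavable linker to tTA, with β-arrestin2–TEV, treated 16-18 h at 37 °C with compounds (top 10 μM, 10-point 3-fold, 1% DMSO). Luciferase reporter luminescence normalised to DMSO background and 5 μM S1P control as percent activity; EC50 from concentration-response curves.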

The test system of a further assay is circulating lymphocytes. Put plainly: Lymphocyte PD assay in rats. Format: in vivo, rat. The following applies: 24 hours after oral single dose at 3 mg/kg, Female CD rats (Sprague Dawley), compared to vehicle-only group. As to the method: Suppression of circulating lymphocytes was assessed as a PD endpoint in jugular vein canulated Sprague Dawely (SD) rats 6-8 weeks of age and weighing approximately 200 g (Taconic Farms, Germantown, N.Y.). Prior initiating a study, rats were acclimated to the vivarium facility (12 h light cycle, 12 h dark cycle) for a minimum of 2 days. During a study, animals were provided food and water ad libitum and housed in a room conditioned at 70-75° F. and 60% relative humidity. All animals were examined daily for health assessment.
The Compound of the Invention were formulated and animals was dosed at a volume of 4 mL/kg. At indicated timepoints, whole blood was collected via jugular vein canulas into EDTA-coated tubes and hematology analysis was performed on an Abbott Cell-Dyn 3700 hematology analyzer. Readouts included white blood cells (total, differential, and % of total), neutrophils, lymphocytes, monocytes, eosinophils, basophils, RBC, HGB, hematocrit, mean corpuscule volume, mean corpuscule HGB concentration, RBC distribution width, platelets, and mean platelet volume.

T1 sequence (P21453 whole entry): as the sequence (P21453 whole entry) above
T4 sequence (P32121 whole entry): as the sequence (P32121 whole entry) above
T4 sequence (Q99500 whole entry): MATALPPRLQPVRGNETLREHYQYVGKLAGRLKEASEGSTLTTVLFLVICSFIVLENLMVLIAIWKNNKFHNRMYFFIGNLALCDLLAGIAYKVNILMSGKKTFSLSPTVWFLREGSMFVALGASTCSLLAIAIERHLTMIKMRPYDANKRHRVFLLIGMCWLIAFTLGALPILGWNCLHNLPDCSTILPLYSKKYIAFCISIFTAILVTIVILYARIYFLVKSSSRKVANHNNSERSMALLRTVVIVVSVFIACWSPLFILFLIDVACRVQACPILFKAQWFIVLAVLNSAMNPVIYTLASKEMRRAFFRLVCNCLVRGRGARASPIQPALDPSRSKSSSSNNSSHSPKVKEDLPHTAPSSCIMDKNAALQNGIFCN

In the case of `CC(C)Oc1ccc(-c2nnc(-c3cc(F)c(OC[C@H](N)CO)cc3Cl)s2)cc1Cl` [Entry 1, (2R)-2-amino-3-{[5-chloro-4-(5-{3-chloro-4-[(1-methylethyl)oxy]phenyl}-1,3,4-thiadiazol-2-yl)-2-fluorophenyl]oxy}propan-1-ol], the 50% effective concentration (EC50) was 10 to 50 nM in assay [1], 10 to 50 nM at S1P1, 10 to 50 nM in assay [2] and over 10000 nM on S1P3. Also, the “Lymphocyte Counts (p < 0.05)” value with circulating lymphocytes is given as −80%.

`CC(C)Oc1ccc(-c2nnc(-c3cc(F)c(OC[C@H](N)CO)cc3Cl)s2)cc1Br` [Entry 2, (2R)-2-amino-3-{[4-(5-{3-bromo-4-[(1-methylethyl)oxy]phenyl}-1,3,4-thiadiazol-2-yl)-5-chloro-2-fluorophenyl]oxy}propan-1-ol]: the EC50 is at most 10 nM in assay [1], 10 to 50 nM on S1P1, 10 to 50 nM in assay [2] and over 10000 nM on S1P3. Besides, in the assay with circulating lymphocytes, the “Lymphocyte Counts (p < 0.05)” value is reported as −93%.

For `CC(C)Oc1ccc(-c2nnc(-c3cc(F)c(OC[C@H](N)CO)cc3Cl)s2)cc1C#N` [Entry 37, 5-[5-(4-{[(2R)-2-amino-3-hydroxypropyl]oxy}-2-chloro-5-fluorophenyl)-1,3,4-thiadiazol-2-yl]-2-[(1-methylethyl)oxy]benzonitrile], the EC50 is at most 10 nM in assay [1], at most 10 nM at S1P1, 10 to 50 nM in assay [2] and over 10000 nM on S1P3. For the same compound, the “Lymphocyte Counts (p < 0.05)” value in the assay on circulating lymphocytes is on record as −93%.

In the case of `CC(C)Nc1ccc(-c2nnc(-c3cc(F)c(OCC(N)CO)cc3Cl)s2)cn1` (stereo not shown) [Entry 44, 2-amino-3-{[5-chloro-2-fluoro-4-(5-{6-[(1-methylethyl)amino]pyridin-3-yl}-1,3,4-thiadiazol-2-yl)phenyl]oxy}propan-1-ol], the concentration giving a half-maximal response (EC50) is 250 to 2800 nM in assay [1], at most 10 nM at S1P1, 250 to 2800 nM in assay [2] and over 10000 nM at S1P3. Moreover, the “Lymphocyte Counts (p < 0.05)” value with circulating lymphocytes is −94%.

On to `Cc1cc(-c2nnc(-c3cc(F)c(OC[C@H](N)[C@@H](C)O)cc3Cl)s2)cc(NC(C)C)n1` [Entry 62, (2R,3S)-3-amino-4-{[5-chloro-2-fluoro-4-(5-{2-methyl-6-[(1-methylethyl)amino]pyridin-4-yl}-1,3,4-thiadiazol-2-yl)phenyl]oxy}butan-2-ol], for which the EC50 in assay [1] was at most 10 nM; at S1P1, at most 10 nM; in assay [2] it was 10 to 50 nM; at S1P3 it was over 10000 nM. In the assay on circulating lymphocytes, the “Lymphocyte Counts (p < 0.05)” value is −79%.

Turning to `CC(C)Oc1ccc(-c2nnc(-c3cc(F)c(OC[C@H](N)[C@H](C)O)cc3Cl)s2)cc1Cl` [Entry 72, (2S,3S)-3-amino-4-{[5-chloro-4-(5-{3-chloro-4-[(1-methylethyl)oxy]phenyl}-1,3,4-thiadiazol-2-yl)-2-fluorophenyl]oxy}butan-2-ol], the EC50 in assay [1] is 10 to 50 nM; at S1P1 it was at most 10 nM; in assay [2], 50 to 250 nM; on S1P3, over 10000 nM. For the same compound, in the assay on circulating lymphocytes, the “Lymphocyte Counts (p < 0.05)” value is −86%.

As to `CC(C)Oc1ccc(-c2nnc(-c3cc(F)c(OC[C@H](N)[C@@H](C)O)cc3Cl)s2)cc1Cl` [Entry 73, (2R,3S)-3-amino-4-{[5-chloro-4-(5-{3-chloro-4-[(1-methylethyl)oxy]phenyl}-1,3,4-thiadiazol-2-yl)-2-fluorophenyl]oxy}butan-2-ol], the EC50 in assay [1] was at most 10 nM; at S1P1, at most 10 nM; in assay [2], 10 to 50 nM; at S1P3 it was over 10000 nM. Moreover, the “Lymphocyte Counts (p < 0.05)” value in the assay on circulating lymphocytes was −89%.

As to `CC(C)Nc1ccc(-c2nnc(-c3cc(F)c(OC[C@@H](N)CO)cc3Cl)s2)cn1` [Entry 77, (2S)-2-amino-3-{[5-chloro-2-fluoro-4-(5-{6-[(1-methylethyl)amino]pyridin-3-yl}-1,3,4-thiadiazol-2-yl)phenyl]oxy}propan-1-ol], the EC50 in assay [1] was 250 to 2800 nM; at S1P1, at most 10 nM; in assay [2], 250 to 2800 nM; at S1P3, over 10000 nM. The “Lymphocyte Counts (p < 0.05)” value in the assay with circulating lymphocytes was −94%.

One may read the EC50 as the concentration giving half of the maximal effect.

(Values after patent US20100249071A1, “Modulators of S1P and Methods of Making And Using” (Exelixis, Inc., priority 2009, published 2010).)
